From US7645753B2, “Benzothiazole, thiazolopyridine, benzooxazole and oxazolopyridine derivatives” (Hoffmann-La Roche Inc., priority 2005, dated 2010)

Molecular target: T1, human subtype 5 somatostatin receptor (Homo sapiens, UniProt P35346)
T1 construct: host or cells: CHO cells, stably transfected; membranes prepared by sonication and fractionating centrifugation
Assay: Radioligand binding to membranes of CHO cells expressing human SSTR5 (125I-labeled 11-Tyr somatostatin-14 tracer)
Settings: Ki calculated from IC50 by Cheng-Prussoff equation
Procedure: A CHO cell line stably transfected with a plasmid encoding the human subtype 5 somatostatin receptor (GenBank accession number D16827) was obtained from Euroscreen. Cells were cultured and used for binding and functional assays.
Membranes of these cells were prepared by sonication in the presence of protease inhibitors and subsequent fractionating centrifugation. The protein concentration in the membrane preparation was determined using a commercial kit (BCA kit, Pierce, USA). Membranes were stored at −80° C. until use. After thawing, membranes were diluted in assay buffer (50 mM Tris-HCl at pH 7.4, 5 mM MgCl2 and 0.20% BSA) and subjected to dounce homogenization.
For binding studies, 0.1 mL membrane suspension, corresponding to app. 6×10^−15 mol receptor, was incubated for 1 h at room temperature with 0.05 nM ^125I-labeled tracer (11-Tyr somatostatin-14, Perkin-Elmer) and either test compounds in varying concentrations or, for the determination of non-specific binding, 0.001 mM non-labeled somatostatin-14. The incubation was stopped by filtration through GF/B glassfiber filters and washing with ice-cold wash buffer (50 mM Tris-HCl at pH 7.4). The bound radioactivity was measured after application of a scintillation cocktail (Microscint 40) and expressed as disintegrations per minute (dpm).
The receptor concentration was determined in a prior saturation experiment where a fixed, arbitrary amount of membranes was incubated with a concentration range of radio-labeled tracer. This allows estimating the total number of specific binding sites per amount of protein (i.e., Bmax), typically between 1 and 5 pmol/mg.
The concentration of the test compound required to result in half maximal inhibition of binding of the radio-labeled tracer (IC50) was estimated from a concentration-versus-dpm graph. The binding affinity (Ki) was calculated from the IC50 by applying the Cheng-Prussoff equation for single binding sites.

T1 sequence (P35346 whole entry): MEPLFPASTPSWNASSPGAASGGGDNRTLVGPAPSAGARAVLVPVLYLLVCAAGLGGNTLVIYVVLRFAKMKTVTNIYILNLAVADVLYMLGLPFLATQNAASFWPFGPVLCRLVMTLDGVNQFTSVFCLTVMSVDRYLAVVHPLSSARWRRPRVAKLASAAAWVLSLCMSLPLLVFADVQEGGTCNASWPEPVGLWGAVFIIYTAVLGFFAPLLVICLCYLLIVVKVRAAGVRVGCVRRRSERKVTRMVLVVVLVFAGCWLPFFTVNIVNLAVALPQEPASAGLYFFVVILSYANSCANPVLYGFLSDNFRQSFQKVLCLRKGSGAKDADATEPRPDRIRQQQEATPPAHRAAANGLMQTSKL

Going from `CCOc1cc(CN2CCC(Nc3nc4ccc(Cl)cc4o3)CC2)cc(OCC)c1-n1cccc1` [Example 94, (6-chloro-benzooxazol-2-yl)-[1-(3,5-diethoxy-4-pyrrol-1-yl-benzyl)-piperidin-4-yl]-amine] to `CCOc1cc(CN2CCC(Nc3nc4cc(S(N)(=O)=O)ccc4o3)CC2)cc(OCC)c1-n1cccc1` [Example 129, 2-[1-(3,5-diethoxy-4-pyrrol-1-yl-benzyl)-piperidin-4-ylamino]-benzooxazole-5-sulfonic acid amide], the Ki falls from 59 nM to 4.1 nM (14-fold).

For `CCOc1cc(CN2CCC(Nc3nc4cc(NC(=O)CC)ccc4o3)CC2)ccc1OC` [Example 243, N-{2-[1-(3-ethoxy-4-methoxy-benzyl)-piperidin-4-ylamino]-benzooxazol-5-yl}-propionamide], the Ki was 293 nM.
